Experimental data reported in patent publication US4281136A, “2-Alkyl-3-haloisothiazolium salts and their derivatives” (Givaudan Corporation, priority 1978, dated 1981).
Values after ≈ are worked out from the molar mass of the structure shown. Where two headings read alike, the source gives them in different places.

Columns and labels:
[1] = tested on: Ps. aeruginosa; assay: preservative for cutting oil emulsions; assay type: cell-based; conditions: for MIC: Pseudomonas aeruginosa; for Minimum Inhibitory Concentration: listed as CH3, Cl, H
Protocol: Various aliquots of a 6% solution of the chemical in ethanol were added to cutting oil emulsions prepared by diluting Kutwell 30 cutting oil concentrate 1 to 30 with water. These samples were inoculated with a culture of Ps. aeruginosa and incubated at 28° on a rotary shaker. At weekly intervals the samples were examined for microorganisms and then reinoculated and incubated.

[2] = tested on: Aureobasidium pullulans; assay: preservative for latex paints; assay type: cell-based; conditions: for zone of inhibition at 0.25 % / zone of inhibition at 0.5 %: Aureobasidium pullulans, 504 h; for Surface (growth on the surface of painted square): none, medium or heavy
Protocol: Various quantities of the chemical were incorporated into a white exterior vinyl acetate paint. Whatman #30 filter paper was painted with one coat of paint on each side. One inch squares were cut and placed in Petri dishes on a malt agar.
The surface of both the agar and the painted squares were inoculated with a spore suspension of Aureobasidium pullulans. The plates were examined for zones of inhibition and surface growth after three weeks incubation in a humidity chamber at 27°-28°.
Various quantities of 4,5-dichloro-2-methyl-4-isothiazolin-3-thione were incorporated into a white exterior vinyl acetate paint and tested as described in Example IV.

[3] = 168 h, cutting oil emulsion, incubation 1 week, 28°, read-out: Minimum Inhibitory Concentration
[4] = 336 h, cutting oil emulsion, incubation 2 weeks, 28°, read-out: Minimum Inhibitory Concentration
[5] = 504 h, cutting oil emulsion, incubation 3 weeks, 28°, read-out: Minimum Inhibitory Concentration
[6] = 672 h, cutting oil emulsion, incubation 4 weeks, 28°, read-out: Minimum Inhibitory Concentration
[7] = 168 h, read-out: Minimum Inhibitory Concentration, cutting oil emulsion, incubation 1 week, 28°
[8] = 336 h, read-out: Minimum Inhibitory Concentration, cutting oil emulsion, incubation 2 weeks, 28°
[9] = Conc. 0.25% in vinyl acetate paint, three weeks, 27°-28°, read-out: Zone (zone of inhibition)
[10] = Conc. 0.5% in vinyl acetate paint, three weeks, 27°-28°, read-out: Zone (zone of inhibition)

CC1=C(Cl)C(=C(C#N)C#N)N(C)S1 [drawing 12 CH3, Cl, CH3]
MIC [1, 3]: 250 µg/mL (≈ 1180 µM) | MIC [1, 4]: 500 µg/mL (≈ 2360 µM) | MIC [1, 5]: 500 µg/mL (≈ 2360 µM) | MIC [1, 6]: 1000 µg/mL (≈ 4720 µM)

CCn1sc(Cl)c(Cl)c1=S [No. 2 (Table VIII)]
MIC [1, 3]: 16 µg/mL (≈ 74.7 µM) | MIC [1, 4]: 32 µg/mL (≈ 149 µM) | MIC [1, 5]: 62 µg/mL (≈ 290 µM) | MIC [1, 6]: 62 µg/mL (≈ 290 µM)

Cn1scc(Cl)c1=S [No. 4 (Table VIII)]
MIC [1, 7]: < 32 µg/mL | MIC [1, 8]: 62 µg/mL (≈ 374 µM) | MIC ([1]; 504 h, read-out: Minimum Inhibitory Concentration, cutting oil emulsion, incubation 3 weeks, 28°): 62 µg/mL (≈ 374 µM) | MIC ([1]; 672 h, read-out: Minimum Inhibitory Concentration, cutting oil emulsion, incubation 4 weeks, 28°): 62 µg/mL (≈ 374 µM)

CN1SC=CC1=C(C#N)C#N [drawing 12 CH3, H, H]
MIC [1, 3]: 250 µg/mL (≈ 1530 µM) | MIC [1, 4]: 500 µg/mL (≈ 3060 µM) | MIC [1, 5]: 500 µg/mL (≈ 3060 µM) | MIC [1, 6]: 500 µg/mL (≈ 3060 µM)

CN1SC=C(Cl)C1=C(C#N)C#N [drawing 12 CH3, Cl, H]
MIC [1, 3]: < 32 µg/mL | MIC [1, 4]: < 32 µg/mL | MIC [1, 5]: < 32 µg/mL | MIC [1, 6]: < 32 µg/mL

Cn1sc(C#N)c(Cl)c1=S [No. 6 (Table VIII)]
MIC [1, 3]: 16 µg/mL (≈ 83.9 µM) | MIC [1, 4]: 125 µg/mL (≈ 656 µM) | MIC [1, 5]: 250 µg/mL (≈ 1310 µM) | MIC [1, 6]: 250 µg/mL (≈ 1310 µM)

CCN1SC=CC1=C(C#N)C#N [drawing 12 CH2CH3, H, H]
MIC [1, 3]: 125 µg/mL (≈ 705 µM) | MIC [1, 4]: 250 µg/mL (≈ 1410 µM) | MIC [1, 5]: 250 µg/mL (≈ 1410 µM) | MIC [1, 6]: 500 µg/mL (≈ 2820 µM)

C[n+]1scc(Cl)c1Cl [No. 23 (Table I)]
Minimum Inhibitory Concentration ([1]; cutting oil emulsion, incubation 3 weeks, 28°, Cl, O3SOMe): 32 µg/mL | Minimum Inhibitory Concentration ([1]; cutting oil emulsion, incubation 4 weeks, 28°, Cl, O3SOMe): 32 µg/mL

C[n+]1sc(Cl)c(C#N)c1Cl [No. 26 (Table I), 4-Cyano-3,5-dichloro-2-methylisothiazolium fluorosulfonate]
zone of inhibition at 0.25 % [2, 9]: 0 mm | zone of inhibition at 0.5 % [2, 10]: 0 mm | MIC [1, 3]: < 16 µg/mL | MIC [1, 4]: 125 µg/mL | MIC [1, 5]: 250 µg/mL | MIC [1, 6]: 250 µg/mL

CCOC(=O)c1s[n+](C)c(Cl)c1Cl [No. 24 (Table I), 3,4-Dichloro-2-methyl-5-ethoxycarbonylisothiazolium fluorosulfonate]
MIC [1, 3]: 125 µg/mL | MIC [1, 4]: 250 µg/mL | MIC [1, 5]: 250 µg/mL | MIC [1, 6]: 250 µg/mL

C[n+]1scc([N+](=O)[O-])c1Cl [No. 28 (Table I)]
MIC [1, 3]: 125 µg/mL | MIC [1, 4]: 500 µg/mL | MIC [1, 5]: 500 µg/mL | MIC [1, 6]: 500 µg/mL

C[n+]1scc(Cl)c1Cl [No. 22 (Table I), 3,4-Dichloro-2-methylisothiazolium fluorosulfonate]
zone of inhibition at 0.25 % ([2]; read-out: Zone (zone of inhibition), Conc. 0.25% in vinyl acetate paint, three weeks, 27°-28°): 0 mm | zone of inhibition at 0.5 % ([2]; read-out: Zone (zone of inhibition), Conc. 0.5% in vinyl acetate paint, three weeks, 27°-28°): 0 mm | MIC [1, 7]: 32 µg/mL | MIC [1, 8]: 32 µg/mL | Minimum Inhibitory Concentration ([1]; cutting oil emulsion, incubation 3 weeks, 28°, Cl, O3SF): 125 µg/mL | Minimum Inhibitory Concentration ([1]; cutting oil emulsion, incubation 4 weeks, 28°, Cl, O3SF): 250 µg/mL

C[n+]1sccc1Cl [No. 17 (Table I)]
Minimum Inhibitory Concentration ([1]; cutting oil emulsion, incubation 1 week, 28°, PF6): 32 µg/mL | Minimum Inhibitory Concentration ([1]; cutting oil emulsion, incubation 2 weeks, 28°, PF6): 32 µg/mL | Minimum Inhibitory Concentration ([1]; cutting oil emulsion, incubation 3 weeks, 28°, PF6): 32 µg/mL | Minimum Inhibitory Concentration ([1]; cutting oil emulsion, incubation 4 weeks, 28°, PF6): 32 µg/mL

C[n+]1sccc1Cl [No. 14 (Table I)]
Minimum Inhibitory Concentration ([1]; cutting oil emulsion, incubation 1 week, 28°, O3SOMe): 64 µg/mL | Minimum Inhibitory Concentration ([1]; cutting oil emulsion, incubation 2 weeks, 28°, O3SOMe): 64 µg/mL | Minimum Inhibitory Concentration ([1]; cutting oil emulsion, incubation 3 weeks, 28°, O3SOMe): 64 µg/mL | Minimum Inhibitory Concentration ([1]; cutting oil emulsion, incubation 4 weeks, 28°, O3SOMe): 64 µg/mL

CC[n+]1sc(Cl)c(Cl)c1Cl [Et, Cl, Cl, Cl, O3SCF3]
zone of inhibition at 0.25 % [2, 9]: 20 mm | zone of inhibition at 0.5 % [2, 10]: 20 mm | Surface (growth on the surface of painted square) ([2]; Conc. 0.25% in vinyl acetate paint, three weeks, 27°-28°): None | Surface (growth on the surface of painted square) ([2]; Conc. 0.5% in vinyl acetate paint, three weeks, 27°-28°): None
